{
  "source": "patent US8304450B2",
  "about": "“Stable pharmaceutical compositions with docetaxel” (Quiral Quimica Do Brasil S.A., priority 2003, dated 2012)",
  "key": {"[1]": {"experiment": "Comparative stability study of solutions of docetaxel tri-hydrate and anhydrous forms in polysorbate 80 with and without acid", "format": "physicochemical", "conditions": "solutions in polyethoxylated sorbitol previously or posteriorly acidified"}, "[2]": {"experiment": "Comparative stability study between the tri-hydrate and anhydrous forms of docetaxel (bulk substance)", "format": "physicochemical", "set-up": "Assay (H2O): unit not given here", "conditions": "for A % Docetaxel / A % Impurities (unknown) / Assay (H2O): bulk substance; for A % Docetaxel: amber glass vials under N2 over P2O5, −5 to 0° C.; for A % Docetaxel / A % Impurities (unknown): HPLC; for A % Impurities (unknown) / Assay (H2O): −5 to 0° C.; for Assay (H2O): Karl Fischer titration", "description": "Comparative stability study between the tri-hydrate and anhydrous forms of (2R,3S)4-acetoxy-2-α-benzoyloxy-5β-20-epoxy-1,7-β-10-β-tri-hydroxy-9-oxo-tax-11-en-13α-il 3-tert-butoxycarbonylamino-2-hydroxy-3-phenylpropionate\nAnalysis was realized by HPLC using a Waters Spherisorb® C-18, 250×5 mm column, mobile phase MeOH:H2O 85:15, flow 1.5 mL/min. Related impurities reported as A % discounting the peak due to the dead volume. Samples were stored in amber glass vials under N2 in a dessicator over P2O5 maintained between −5 and 0° C."}, "[3]": {"conditions": "statement of patent application PI 9508789-3; cited from earlier work"}, "[4]": {"conditions": "stored under adequate and controlled conditions"}},
  "data": [
    {"smiles": "CC(=O)O[C@@]12CO[C@@H]1C[C@H](O)[C@@]1(C)C(=O)[C@H](O)C3=C(C)[C@@H](OC(=O)[C@H](O)[C@@H](NC(=O)OC(C)(C)C)c4ccccc4)C[C@@](O)([C@@H](OC(=O)c4ccccc4)[C@H]21)C3(C)C", "note": "[Docetaxel (anhydrous), (2R,3S)4-acetoxy-2-α-benzoyloxy-5β-20-epoxy-1,7-β-10-β-tri-hydroxy-9-oxo-tax-11-en-13α-il 3-tert-butoxycarbonylamino-2-hydroxy-3-phenylpropionate]", "values": [
      {"measurement": "stability conferred to the pharmaceutical finished dosage form", "setting": "[1]", "result": "equal or superior stability"},
      {"measurement": "A % Docetaxel", "setting": "[2]; 0 months", "result": 99.28, "unit": "A %"},
      {"measurement": "A % Impurities (unknown)", "setting": "[2]; 0 months", "result": 0.72, "unit": "A %"},
      {"measurement": "Assay (H2O)", "setting": "[2]; 0 months", "result": 0.10},
      {"measurement": "A % Docetaxel", "setting": "[2]; 3 months", "result": 99.21, "unit": "A %"},
      {"measurement": "A % Impurities (unknown)", "setting": "[2]; 3 months", "result": 0.79, "unit": "A %"},
      {"measurement": "Assay (H2O)", "setting": "[2]; 3 months", "result": 0.11},
      {"measurement": "A % Docetaxel", "setting": "[2]; 6 months", "result": 99.26, "unit": "A %"},
      {"measurement": "A % Impurities (unknown)", "setting": "[2]; 6 months", "result": 0.73, "unit": "A %"},
      {"measurement": "Assay (H2O)", "setting": "[2]; 6 months", "result": 0.12},
      {"measurement": "A % Docetaxel", "setting": "[2]; 12 months", "result": 98.93, "unit": "A %"},
      {"measurement": "A % Impurities (unknown)", "setting": "[2]; 12 months", "result": 1.07, "unit": "A %"},
      {"measurement": "Assay (H2O)", "setting": "[2]; 12 months", "result": 0.09},
      {"measurement": "A % Docetaxel", "setting": "[2]; 18 months", "result": 98.65, "unit": "A %"},
      {"measurement": "A % Impurities (unknown)", "setting": "[2]; 18 months", "result": 1.35, "unit": "A %"},
      {"measurement": "Assay (H2O)", "setting": "[2]; 18 months", "result": 0.12},
      {"measurement": "A % Docetaxel", "setting": "[2]; 24 months", "result": 98.29, "unit": "A %"},
      {"measurement": "A % Impurities (unknown)", "setting": "[2]; 24 months", "result": 1.71, "unit": "A %"},
      {"measurement": "Assay (H2O)", "setting": "[2]; 24 months", "result": 0.13},
      {"measurement": "re-hydration on storage", "setting": "[2]; [4]", "result": "does not re-hydrate to a significant degree"},
      {"measurement": "stability of anhydrous product compared with tri-hydrate", "setting": "[2]; [4]", "result": "stability equal or superior to the tri-hydrate"}
    ]},
    {"smiles": "CC(=O)O[C@@]12CO[C@@H]1C[C@H](O)[C@@]1(C)C(=O)[C@H](O)C3=C(C)[C@@H](OC(=O)[C@H](O)[C@@H](NC(=O)OC(C)(C)C)c4ccccc4)C[C@@](O)([C@@H](OC(=O)c4ccccc4)[C@H]21)C3(C)C", "note": "[Docetaxel (tri-hydrate), tri-hydrate of (2R,3S)4-acetoxy-2-α-benzoyloxy-5β-20-epoxy-1,7-β-10-β-tri-hydroxy-9-oxo-tax-11-en-13α-il 3-tert-butoxycarbonylamino-2-hydroxy-3-phenylpropionate]", "values": [
      {"measurement": "stability of tri-hydrate relative to anhydrous product", "setting": "[3]", "result": "clearly superior stability relative to the anhydrous product"},
      {"measurement": "A % Docetaxel", "setting": "[2]; 0 months", "result": 99.51, "unit": "A %"},
      {"measurement": "A % Impurities (unknown)", "setting": "[2]; 0 months", "result": 0.49, "unit": "A %"},
      {"measurement": "Assay (H2O)", "setting": "[2]; 0 months", "result": 6.32},
      {"measurement": "A % Docetaxel", "setting": "[2]; 3 months", "result": 99.23, "unit": "A %"},
      {"measurement": "A % Impurities (unknown)", "setting": "[2]; 3 months", "result": 0.77, "unit": "A %"},
      {"measurement": "Assay (H2O)", "setting": "[2]; 3 months", "result": 6.35},
      {"measurement": "A % Docetaxel", "setting": "[2]; 6 months", "result": 99.30, "unit": "A %"},
      {"measurement": "A % Impurities (unknown)", "setting": "[2]; 6 months", "result": 0.70, "unit": "A %"},
      {"measurement": "Assay (H2O)", "setting": "[2]; 6 months", "result": 6.21},
      {"measurement": "A % Docetaxel", "setting": "[2]; 12 months", "result": 98.91, "unit": "A %"},
      {"measurement": "A % Impurities (unknown)", "setting": "[2]; 12 months", "result": 1.09, "unit": "A %"},
      {"measurement": "Assay (H2O)", "setting": "[2]; 12 months", "result": 6.42},
      {"measurement": "A % Docetaxel", "setting": "[2]; 18 months", "result": 98.72, "unit": "A %"},
      {"measurement": "A % Impurities (unknown)", "setting": "[2]; 18 months", "result": 1.28, "unit": "A %"},
      {"measurement": "Assay (H2O)", "setting": "[2]; 18 months", "result": 6.31},
      {"measurement": "A % Docetaxel", "setting": "[2]; 24 months", "result": 98.21, "unit": "A %"},
      {"measurement": "A % Impurities (unknown)", "setting": "[2]; 24 months", "result": 1.79, "unit": "A %"},
      {"measurement": "Assay (H2O)", "setting": "[2]; 24 months", "result": 6.29}
    ]}
  ]
}
